Test results as given in article PMC4177084 (Journal of Thyroid Research, 2014).
pIC50: −log10 of the molar value.

How the values were obtained:
[1] = molecular target: T1, KIT(V560G) (Homo sapiens, UniProt P10721, V560G); assay: Cell free kinase inhibition assay; type: biochemical
T1 construct: purchased Carna Biosciences, Inc. (Kobe, Japan)

[2] = molecular target: T2, FLT4/VEGFR3 (Homo sapiens, UniProt P35916); assay: Cell free kinase inhibition assay; type: biochemical
T2 construct: purchased Carna Biosciences, Inc. (Kobe, Japan)

[3] = molecular target: T3, FLT1/VEGFR1 (Homo sapiens, UniProt P17948); assay: Cell free kinase inhibition assay; type: biochemical
T3 construct: purchased Carna Biosciences, Inc. (Kobe, Japan)

[4] = molecular target: T4, PDGFRα (Homo sapiens, UniProt P16234); assay: Cell free kinase inhibition assay; type: biochemical
T4 construct: purchased Carna Biosciences, Inc. (Kobe, Japan)

[5] = molecular target: T5, FRK (Homo sapiens, UniProt P42685); assay: Cell free kinase inhibition assay; type: biochemical
T5 construct: purchased Carna Biosciences, Inc. (Kobe, Japan)

[6] = molecular target: T6, PDGFRβ (Homo sapiens, UniProt P09619); assay: Cell free kinase inhibition assay; type: biochemical
T6 construct: purchased Carna Biosciences, Inc. (Kobe, Japan)

[7] = molecular target: T7, KIT(T670I) (Homo sapiens, UniProt P10721, T670I); assay: Cell free kinase inhibition assay; type: biochemical
T7 construct: purchased Carna Biosciences, Inc. (Kobe, Japan)

[8] = molecular target: T8, KIT(V654A) (Homo sapiens, UniProt P10721, V654A); assay: Cell free kinase inhibition assay; type: biochemical
T8 construct: purchased Carna Biosciences, Inc. (Kobe, Japan)

[9] = molecular target: T9, PDGFRα(T674I) (Homo sapiens, UniProt P16234, T674I); assay: Cell free kinase inhibition assay; type: biochemical
T9 construct: purchased Carna Biosciences, Inc. (Kobe, Japan)

[10] = molecular target: T10, EPHA1 (Homo sapiens, UniProt P21709); assay: Cell free kinase inhibition assay; type: biochemical
T10 construct: purchased Carna Biosciences, Inc. (Kobe, Japan)

[11] = molecular target: T11, JAK2 (Homo sapiens, UniProt O60674); assay: Cell free kinase inhibition assay; type: biochemical
T11 construct: purchased Carna Biosciences, Inc. (Kobe, Japan)

[12] = molecular target: T12, CDK4 (Homo sapiens, UniProt P11802); assay: Cell free kinase inhibition assay; type: biochemical
T12 construct: purchased Carna Biosciences, Inc. (Kobe, Japan)

[13] = molecular target: T13, CHK1 (Homo sapiens, UniProt O14757); assay: Cell free kinase inhibition assay; type: biochemical
T13 construct: purchased Carna Biosciences, Inc. (Kobe, Japan)

[14] = molecular target: T14, COT (Homo sapiens, UniProt P41279); assay: Cell free kinase inhibition assay; type: biochemical
T14 construct: purchased Carna Biosciences, Inc. (Kobe, Japan)
Procedure: […]. Briefly, each test compound was mixed with enzyme, substrate, ATP, and Mg under appropriate buffer conditions for the ELISA or MSA. […] IC50 values (the half maximal inhibitory concentration) were calculated from concentrations versus % inhibition curves.

[15] = molecular target: T15, MLK1 (Homo sapiens, UniProt P80192); assay: Cell free kinase inhibition assay; type: biochemical
T15 construct: purchased Carna Biosciences, Inc. (Kobe, Japan)

[16] = molecular target: T16, NEK2 (Homo sapiens, UniProt P51955); assay: Cell free kinase inhibition assay; type: biochemical
T16 construct: purchased Carna Biosciences, Inc. (Kobe, Japan)

[17] = molecular target: T17, p70S6K (Homo sapiens, UniProt P23443); assay: Cell free kinase inhibition assay; type: biochemical
T17 construct: purchased Carna Biosciences, Inc. (Kobe, Japan)

[18] = molecular target: T18, PKACα (Homo sapiens, UniProt P17612); assay: Cell free kinase inhibition assay; type: biochemical
T18 construct: purchased Carna Biosciences, Inc. (Kobe, Japan)

[19] = molecular target: T19, PLK1 (Homo sapiens, UniProt P53350); assay: Cell free kinase inhibition assay; type: biochemical
T19 construct: purchased Carna Biosciences, Inc. (Kobe, Japan)

[20] = molecular target: T20, WEE1 (Homo sapiens, UniProt P30291); assay: Cell free kinase inhibition assay; type: biochemical
T20 construct: purchased Carna Biosciences, Inc. (Kobe, Japan)

[21] = test system: Nthy-ori 3-1 cells; assay: Antiproliferation assay (WST-8); type: cell-based, human; conditions: Homo sapiens, 72 h; Nthy-ori 3-1 (normal thyroid), antiproliferative, 3 days
[22] = test system: FTC-133 cells; assay: Antiproliferation assay (WST-8); type: cell-based, human; conditions: Homo sapiens, 72 h; FTC-133 (DTC), antiproliferative, 3 days
[23] = test system: FTC-236 cells; assay: Antiproliferation assay (WST-8); type: cell-based, human; conditions: Homo sapiens, 72 h; FTC-236 (DTC), antiproliferative, 3 days; read-out: IC50
[24] = test system: 8305C cells; assay: Antiproliferation assay (WST-8); type: cell-based; conditions: Homo sapiens, 72 h; 8305C (ATC), antiproliferative, 3 days
[25] = test system: 5 ATC xenograft models (8305C, 8505C, TCO-1, KHM-5M, HTC/C3); assay: Human thyroid cancer xenograft models, tumor growth; type: in vivo, nude mice; conditions: all 5 ATC xenograft models, 10 and 100 mg/kg oral once daily 14 days
Procedure: (§1) Nude mice (CAnN.Cg-Foxn1nu/CrlCrlj, female, 5-6 weeks old) were obtained from Charles River Laboratories Japan (Kanagawa, Japan). Mice were maintained under specific pathogen-free conditions and housed in barrier facilities on a 12 h light/dark cycle, with food and water ad libitum. All procedures using laboratory animals were done in accordance with all applicable institutional and government regulatory guidelines and policies and were performed in an animal facility accredited by the Center for Accreditation of Laboratory Animal Care of the Japan Health Sciences Foundation. Tumor cells were cultured in appropriate culture mediums. […] Then, 0.1-0.2 mL of the cell suspension was inoculated subcutaneously into the right flank region of each mouse. […] The tumor size was measured in two dimensions by using a caliper, and the volume was calculated by using the formula: tumor volume (mm^3) = 1/2 length (mm) × [width (mm)]^2. The change in tumor volume in the treated group relative to that in the control group was calculated according to the following formula: ΔT/C = (ΔT/ΔC) × 100%, where ΔT and ΔC are the change in tumor volume (i.e., growth) for the treated and vehicle control group, respectively. The percentage of tumor growth inhibition (%TGI) was calculated from the formula: [(1 − ΔT/ΔC) × 100].

[26] = test system: 5 DTC xenograft models (K1, RO82-W-1, FTC-133, FTC-236, FTC-238); assay: as above; type: in vivo, nude mice; conditions: all 5 DTC xenograft models, 30 and 100 mg/kg oral once daily 14 days
Procedure: as §1

[27] = Macroscopic changes and body weight during treatment of xenograft-bearing mice; type: in vivo; conditions: nude mice bearing xenografts, during daily oral treatment
Procedure: Tumor cells were cultured in appropriate culture mediums. Cells were harvested with 0.05% or 0.25% (w/v) trypsin/EDTA and suspended with 50% (v/v) BD Matrigel (BD Biosciences, San Jose, CA) in the mixture of culture mediums at a density of 5–10 × 10^7 cells/mL. Then, 0.1-0.2 mL of the cell suspension was inoculated subcutaneously into the right flank region of each mouse. […] The tumor size was measured in two dimensions by using a caliper, and the volume was calculated by using the formula: tumor volume (mm^3) = 1/2 length (mm) × [width (mm)]^2. The change in tumor volume in the treated group relative to that in the control group was calculated according to the following formula: ΔT/C = (ΔT/ΔC) × 100%, where ΔT and ΔC are the change in tumor volume (i.e., growth) for the treated and vehicle control group, respectively. The percentage of tumor growth inhibition (%TGI) was calculated from the formula: [(1 − ΔT/ΔC) × 100].

T16 sequence (P51955 whole entry): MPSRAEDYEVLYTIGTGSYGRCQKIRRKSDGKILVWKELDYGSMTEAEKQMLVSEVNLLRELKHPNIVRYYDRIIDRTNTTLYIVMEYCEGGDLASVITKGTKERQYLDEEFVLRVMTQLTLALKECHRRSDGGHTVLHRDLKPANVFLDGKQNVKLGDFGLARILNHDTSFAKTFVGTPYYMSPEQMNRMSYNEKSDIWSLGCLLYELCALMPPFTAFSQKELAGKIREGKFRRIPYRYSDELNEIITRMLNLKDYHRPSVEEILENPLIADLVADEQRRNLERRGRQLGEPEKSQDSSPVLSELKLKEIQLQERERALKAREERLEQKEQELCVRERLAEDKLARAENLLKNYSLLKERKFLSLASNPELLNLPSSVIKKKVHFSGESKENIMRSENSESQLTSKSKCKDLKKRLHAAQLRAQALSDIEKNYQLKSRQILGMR
T5 sequence (P42685 whole entry): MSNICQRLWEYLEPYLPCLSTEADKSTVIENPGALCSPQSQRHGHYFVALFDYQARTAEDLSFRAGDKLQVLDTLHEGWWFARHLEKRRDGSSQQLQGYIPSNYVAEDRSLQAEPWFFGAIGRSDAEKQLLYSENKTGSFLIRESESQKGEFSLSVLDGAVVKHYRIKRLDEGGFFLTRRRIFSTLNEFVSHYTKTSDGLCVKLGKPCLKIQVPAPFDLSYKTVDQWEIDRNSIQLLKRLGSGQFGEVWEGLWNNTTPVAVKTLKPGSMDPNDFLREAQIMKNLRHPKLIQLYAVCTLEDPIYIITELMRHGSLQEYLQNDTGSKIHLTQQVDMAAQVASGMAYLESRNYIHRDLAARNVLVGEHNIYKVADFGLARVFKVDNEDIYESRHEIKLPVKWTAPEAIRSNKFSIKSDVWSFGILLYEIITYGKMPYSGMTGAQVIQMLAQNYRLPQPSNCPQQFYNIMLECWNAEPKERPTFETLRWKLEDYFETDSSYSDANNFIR
T20 sequence (P30291 whole entry): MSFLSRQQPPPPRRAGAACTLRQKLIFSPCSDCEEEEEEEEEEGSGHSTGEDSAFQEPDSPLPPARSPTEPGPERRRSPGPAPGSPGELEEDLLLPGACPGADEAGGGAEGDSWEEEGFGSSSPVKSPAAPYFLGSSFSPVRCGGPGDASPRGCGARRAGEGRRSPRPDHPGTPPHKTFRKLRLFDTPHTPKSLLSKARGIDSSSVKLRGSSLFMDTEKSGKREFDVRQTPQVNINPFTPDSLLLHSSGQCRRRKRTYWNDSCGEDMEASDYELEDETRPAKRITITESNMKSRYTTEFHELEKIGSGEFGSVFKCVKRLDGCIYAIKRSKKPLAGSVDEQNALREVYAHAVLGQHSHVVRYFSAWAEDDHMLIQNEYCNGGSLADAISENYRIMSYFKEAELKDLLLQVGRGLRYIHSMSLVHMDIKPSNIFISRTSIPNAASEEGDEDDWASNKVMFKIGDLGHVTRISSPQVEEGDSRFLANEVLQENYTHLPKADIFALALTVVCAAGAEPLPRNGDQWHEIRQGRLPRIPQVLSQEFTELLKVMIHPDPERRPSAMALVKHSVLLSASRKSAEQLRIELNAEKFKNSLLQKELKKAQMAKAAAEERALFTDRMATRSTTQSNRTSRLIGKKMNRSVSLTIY
T11 sequence (O60674 whole entry): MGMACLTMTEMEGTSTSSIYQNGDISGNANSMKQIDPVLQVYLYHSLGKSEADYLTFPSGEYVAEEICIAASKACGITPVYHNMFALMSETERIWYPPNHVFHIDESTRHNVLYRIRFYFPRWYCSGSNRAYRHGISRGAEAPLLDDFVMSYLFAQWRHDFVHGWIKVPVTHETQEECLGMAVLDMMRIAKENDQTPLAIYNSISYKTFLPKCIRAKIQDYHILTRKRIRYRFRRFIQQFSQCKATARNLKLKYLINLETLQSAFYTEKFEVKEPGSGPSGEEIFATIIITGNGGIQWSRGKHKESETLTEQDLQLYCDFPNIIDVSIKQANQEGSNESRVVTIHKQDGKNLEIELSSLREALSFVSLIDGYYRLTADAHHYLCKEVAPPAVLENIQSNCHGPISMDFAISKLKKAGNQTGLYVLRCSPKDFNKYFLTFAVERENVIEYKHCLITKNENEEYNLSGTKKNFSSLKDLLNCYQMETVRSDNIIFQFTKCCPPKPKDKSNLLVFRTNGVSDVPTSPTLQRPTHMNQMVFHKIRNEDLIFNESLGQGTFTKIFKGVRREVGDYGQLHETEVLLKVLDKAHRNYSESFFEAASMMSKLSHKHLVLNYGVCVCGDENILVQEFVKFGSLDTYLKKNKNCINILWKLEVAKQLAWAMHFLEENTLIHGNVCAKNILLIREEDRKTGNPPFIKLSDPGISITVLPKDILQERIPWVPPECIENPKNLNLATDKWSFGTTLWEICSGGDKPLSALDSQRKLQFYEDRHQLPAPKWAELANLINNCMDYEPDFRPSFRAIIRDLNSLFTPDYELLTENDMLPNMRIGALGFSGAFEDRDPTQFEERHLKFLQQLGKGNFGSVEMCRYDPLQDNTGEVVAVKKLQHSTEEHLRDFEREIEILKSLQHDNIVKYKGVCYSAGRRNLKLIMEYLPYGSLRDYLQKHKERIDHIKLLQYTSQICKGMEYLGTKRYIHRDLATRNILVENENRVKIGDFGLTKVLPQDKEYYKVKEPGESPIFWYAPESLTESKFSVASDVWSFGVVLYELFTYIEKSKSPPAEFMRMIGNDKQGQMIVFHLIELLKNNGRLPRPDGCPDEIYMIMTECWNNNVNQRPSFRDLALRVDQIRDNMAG
T7 sequence (P10721 26-976 T670I): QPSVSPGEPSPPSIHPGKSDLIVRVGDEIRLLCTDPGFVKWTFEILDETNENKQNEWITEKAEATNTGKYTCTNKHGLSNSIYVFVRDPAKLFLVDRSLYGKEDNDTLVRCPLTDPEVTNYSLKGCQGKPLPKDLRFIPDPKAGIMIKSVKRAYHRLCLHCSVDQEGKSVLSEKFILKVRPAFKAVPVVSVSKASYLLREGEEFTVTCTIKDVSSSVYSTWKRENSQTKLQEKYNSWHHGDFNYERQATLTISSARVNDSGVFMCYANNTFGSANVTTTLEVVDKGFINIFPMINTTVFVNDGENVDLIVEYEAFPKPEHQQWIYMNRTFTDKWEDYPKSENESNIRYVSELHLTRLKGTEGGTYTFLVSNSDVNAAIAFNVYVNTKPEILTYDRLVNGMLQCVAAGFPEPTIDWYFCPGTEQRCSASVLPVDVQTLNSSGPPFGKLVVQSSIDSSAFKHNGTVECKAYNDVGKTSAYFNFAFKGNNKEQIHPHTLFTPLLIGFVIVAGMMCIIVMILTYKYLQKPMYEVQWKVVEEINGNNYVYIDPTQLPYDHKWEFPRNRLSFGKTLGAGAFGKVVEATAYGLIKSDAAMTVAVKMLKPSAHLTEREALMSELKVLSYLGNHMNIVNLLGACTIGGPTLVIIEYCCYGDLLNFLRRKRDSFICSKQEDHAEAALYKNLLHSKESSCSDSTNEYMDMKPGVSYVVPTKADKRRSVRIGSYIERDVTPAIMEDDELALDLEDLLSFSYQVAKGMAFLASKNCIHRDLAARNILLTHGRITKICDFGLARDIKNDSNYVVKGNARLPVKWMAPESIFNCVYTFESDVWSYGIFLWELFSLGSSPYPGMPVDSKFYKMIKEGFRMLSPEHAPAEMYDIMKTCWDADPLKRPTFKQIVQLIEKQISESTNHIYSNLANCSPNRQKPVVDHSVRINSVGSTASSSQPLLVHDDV
T4 sequence (P16234 24-1089): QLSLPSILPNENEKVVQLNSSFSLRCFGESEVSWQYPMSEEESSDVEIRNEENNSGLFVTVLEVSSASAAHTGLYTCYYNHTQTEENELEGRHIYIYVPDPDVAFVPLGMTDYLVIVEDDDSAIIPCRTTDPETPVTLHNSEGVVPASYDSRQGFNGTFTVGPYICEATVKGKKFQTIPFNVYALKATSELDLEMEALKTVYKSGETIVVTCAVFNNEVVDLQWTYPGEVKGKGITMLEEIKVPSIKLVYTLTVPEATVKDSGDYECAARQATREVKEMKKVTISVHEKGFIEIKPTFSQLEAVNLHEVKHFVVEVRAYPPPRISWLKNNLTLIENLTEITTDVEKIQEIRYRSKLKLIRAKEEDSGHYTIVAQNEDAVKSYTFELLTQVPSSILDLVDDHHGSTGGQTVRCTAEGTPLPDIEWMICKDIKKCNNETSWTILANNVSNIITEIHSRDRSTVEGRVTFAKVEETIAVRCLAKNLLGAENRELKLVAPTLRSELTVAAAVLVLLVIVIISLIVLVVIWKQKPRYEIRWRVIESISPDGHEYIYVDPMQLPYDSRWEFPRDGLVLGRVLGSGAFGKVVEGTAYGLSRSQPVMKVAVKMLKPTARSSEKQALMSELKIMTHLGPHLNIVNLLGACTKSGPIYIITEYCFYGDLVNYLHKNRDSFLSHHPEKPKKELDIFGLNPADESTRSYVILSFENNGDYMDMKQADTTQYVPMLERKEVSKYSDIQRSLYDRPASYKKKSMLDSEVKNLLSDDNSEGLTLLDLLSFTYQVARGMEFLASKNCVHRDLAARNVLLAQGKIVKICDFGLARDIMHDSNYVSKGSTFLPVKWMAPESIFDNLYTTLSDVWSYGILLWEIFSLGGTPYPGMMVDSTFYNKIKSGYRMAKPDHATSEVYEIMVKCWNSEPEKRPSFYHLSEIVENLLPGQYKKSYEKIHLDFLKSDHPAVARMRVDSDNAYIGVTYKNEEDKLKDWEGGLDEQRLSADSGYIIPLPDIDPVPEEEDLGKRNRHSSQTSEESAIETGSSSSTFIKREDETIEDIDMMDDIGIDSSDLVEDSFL
T1 sequence (P10721 26-976 V560G): as the sequence (P10721 26-976 T670I) above, with V535G, I645T counted along it
T9 sequence (P16234 24-1089 T674I): as the sequence (P16234 24-1089) above, with T651I counted along it
T8 sequence (P10721 26-976 V654A): as the sequence (P10721 26-976 T670I) above, with V629A, I645T counted along it

`COc1cc2nccc(Oc3ccc(NC(=O)NC4CC4)c(Cl)c3)c2cc1C(N)=O` [Lenvatinib, Lenvatinib mesilate] showed a pIC50 [1] of 9.13, a pIC50 [2] of 8.64 and a pIC50 [3] of 8.33. For the same molecule, the pIC50 [4] was 7.54, the pIC50 [5] was 6.80 and the pIC50 [6] was 6.80. It also gave a pIC50 [7] of 6.39, a pIC50 [8] of 6.28 and a pIC50 [9] of 6.20. The pIC50 [10] was 5.29, the pIC50 [11] was under 5.00 and the pIC50 [12] was under 5.00. The pIC50 [13] was under 5.00, the pIC50 [14] was under 5.00 and the pIC50 [15] was under 5.00. For the same molecule, the pIC50 [16] was under 5.00, the pIC50 [17] was under 5.00 and the pIC50 [18] was under 5.00. For the same molecule, the pIC50 [19] was under 5.00, the pIC50 [20] was under 5.00 and the pIC50 [21] was 4.82. The pIC50 [22] was 4.62, the pIC50 [23] was 4.77 and the pIC50 [24] was 4.59. For the same molecule, the antitumor activity [25] was “significant antitumor activity”, the antitumor activity [26] was “significant antitumor activity” and the “macroscopic changes or loss of body weight” value [27] was “no macroscopic changes or loss of body weight were observed”.
